In publication PMC5786306, “An AKAP-Lbc-RhoA interaction inhibitor promotes the translocation of aquaporin-2 to the plasma membrane of renal collecting duct principal cells” (PLoS ONE, 2018):

Assays:
viability of cells = assay: CellTiter-Glo luminescent cell viability assay (ATP); type: cell-based; settings: up to 100 μM, 1 and 24 h
Experimental: (A) Full length AKAP-Lbc (AKAP13) and the indicated GEFs were transiently expressed in HEK293 cells. […] (B) Scaff10 inhibits Gα12- but not Gαq-mediated RhoA activation. The indicated Gα12 and Gαq-mutants were transiently co-expressed with AKAP-Lbc and p63RhoGEF in HEK293 cells as indicated. The cells were left untreated or incubated with Scaff10 (50 μM). The fraction of active RhoA was determined using Rhotekin pulldown assays. Shown is one representative out of three experiments. All GEF constructs were in pCMV3a and Myc-tagged (30 ng per transfection). Expression of AKAP-Lbc, LARG and PDZ-RhoGEF is shown in Fig 7 of the main manuscript. […] Lower panel: Corresponding values of fluorescence to upper panel. […] Lower panel: Corresponding values of fluorescence to upper panel. (B) F norm = normalised fluorescence (fluoresence steady state/fluorescence initial state) indicated in ‰. […] The viability of the indicated cells was determined using a CellTiter-Glo®Luminescent Cell Viability Assay (Promega, Wisconsin, USA) according to the manufacturer's instructions. The assay is based on the quantification of ATP as an indicator of metabolically active cells. […] Viability was assessed after 1 and 24 h incubation with Scaff10-8 in the indicated concentrations. An equal volume of CellTiter-Glo Reagent was added, plates were shaken and luminescence monitored over time with the plates held at 22°C. […]

[1] = system: RhoA activity in IMCD cells; assay: Rhotekin pull down of active RhoA in IMCD cells; type: cell-based, rat; settings: 30 μM
Experimental: Western blotting for the detection of RhoA and Hsp90 and a Rhotekin pull down for the detection of active, GTP-bound RhoA were adapted from a procedure previously described by us. In brief, IMCD cells were cultured as described, DBcAMP and nystatin were removed on day twelve after seeding by exchange of medium for medium without the compounds. On the following day, Scaff10-8 was added to a final concentration of 30 μM or, as a control, the solvent DMSO (0.3%) for 1 h. Then cells were treated with forskolin (30 μM) for an additional 30 min, and subsequently incubated at 4°C in ice-cold Rhotekin buffer (50 mM Tris, pH 7.2; 1% (w/v) Triton X-100; 0.5% sodium deoxycholate; 500 mM NaCl; 10 mm MgCl2; PhosSTOP EASY (PhosSTOP EASY pack, Roche Diagnostics, Mannheim, DE; #REF04906837001), Complete mini EDTA-free (Complete mini EDTA-free, Roche Diagnostics, Mannheim, DE; #REF0693159001), for 10 min and lysed. Lysates (300–400 μg protein) were incubated with 300 μl of Rhotekin beads as previously described Proteins were eluted from beads with Laemmli buffer and analyzed by Western blotting. […]
Fig 10 Scaff10-8 inhibits activation of RhoA in primary IMCD cells. […] Signals were semiquantitatively analyzed by densitometry. […] Statistically significant differences were determined using one-way ANOVA with posthoc Bonferroni. […]

COc1ccc(-c2coc3cc4oc(=O)c(CCC(=O)O)c(C)c4cc23)cc1 [Scaff10-8, 3-[3-(4-Methoxyphenyl)-5-methyl-7-oxo-furo[3,2-g]chromen-6-yl] propanoic acid]
viability of cells (ATP quantitation) (viability of cells): did not affect the viability | RhoA activity ([1]; 1 h): decreased RhoA activity | effect on RhoA inhibition by forskolin ([1]; 1 h plus forskolin 30 μM, 30 min): did not significantly enhance
